Assay results taken from patent US11033539B2, “Compounds of formulas (VII), (VIII), (IX), (XI), (XII), (XIII), and (XIV) as muscarinic receptor 4(M4) antagonists for treating neurological diseases” (Neurocrine Biosciences, Inc., priority 2015, dated 2021).

Biological target: human M4 receptor (Homo sapiens (Human), UniProt P08173)
Assay: Radioligand (tritiated N-methylscopolamine) binding assay, M4
Settings: Ki against the M4 receptor; membranes from CHO cells expressing human M4; tritiated N-methylscopolamine 1.5 nM; read-out: Ki
Method: Binding affinity (Ki) of compounds was measured by inhibition of radioligand binding to membranes from CHO cells expressing human M1, M2, M3, M4 and M5 receptors. Membranes were prepared by nitrogen cavitation and differential centrifugation as previously described (Hoare et al., Mol. Pharmacol. 2003 March; 63(3): 751-65). The radioligand employed was tritiated N-methylscopolamine, used at a concentration of 1.5 nM. A dose-response of twelve concentrations of compound was used, ranging from 10 μM to […]. The assay buffer was 50 mM HEPES, 100 mM NaCl, 5 mM MgCl2, 1 mM ethylenediaminetetraacetic acid, pH-adjusted to pH 7.4. Membranes, radioligand and compound were incubated together for 90 minutes at 37° C., in a total volume of 150 μl in a 96-well plate. Receptor-bound radioligand was then collected by harvesting the assay over glass fiber filters pretreated with polyethylenimine to trap the cell membranes, using rapid vacuum filtration. Harvesting and radioactivity counting was conducted as previously described (see, e.g., Hoare et al., Mol. Pharmacol. 2003 63(3):751-65); Erratum at Mol. Pharmacol. 2005 July; 68(1): 260).

Chain of human M4 receptor (P08173 whole entry): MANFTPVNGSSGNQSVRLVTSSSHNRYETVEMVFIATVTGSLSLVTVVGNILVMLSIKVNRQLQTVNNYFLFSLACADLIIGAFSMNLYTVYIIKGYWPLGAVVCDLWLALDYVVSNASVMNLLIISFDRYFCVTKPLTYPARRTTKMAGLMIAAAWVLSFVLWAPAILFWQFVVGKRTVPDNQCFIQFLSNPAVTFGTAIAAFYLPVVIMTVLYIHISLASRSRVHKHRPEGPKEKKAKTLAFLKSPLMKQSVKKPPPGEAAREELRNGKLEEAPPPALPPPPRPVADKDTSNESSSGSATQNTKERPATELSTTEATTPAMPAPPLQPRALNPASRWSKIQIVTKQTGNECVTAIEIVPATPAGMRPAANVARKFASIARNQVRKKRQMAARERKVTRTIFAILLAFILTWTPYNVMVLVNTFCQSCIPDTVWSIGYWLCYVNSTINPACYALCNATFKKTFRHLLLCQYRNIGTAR

SMILES | Ki [nM]
C[C@@H]1CN(c2ncccn2)CCN1C(=O)NCCC1CCN(Cc2ccccc2)CC1 [4-64, (2R)-N-[2-(1-benzylpiperidin-4-yl)ethyl]-2-methyl-4-(pyrimidin-2-yl)piperazine-1-carboxamide] | 100 to 1000
COc1nc(N2C[C@@H](C)N(C(=O)NCCC3CCN(Cc4ccccc4)CC3)[C@@H](C)C2)ncc1C#N [4-69, (2R,6S)-N-[2-(1-benzylpiperidin-4-yl)ethyl]-4-(5-cyano-4-methoxypyrimidin-2-yl)-2,6-dimethylpiperazine-1-carboxamide] | 10 to 100
COc1ccc(N2CCN(C(=O)NCCC3CCN(Cc4ccccc4)CC3)[C@H](C)C2)cc1F [4-70, (2R)-N-[2-(1-benzylpiperidin-4-yl)ethyl]-4-(3-fluoro-4-methoxyphenyl)-2-methylpiperazine-1-carboxamide] | 10 to 100
O=C(NCCC1CCN(Cc2ccccc2)CC1)N1CCN(c2cc(F)c(F)c(F)c2)CC1 [4-74, N-[2-(1-benzylpiperidin-4-yl)ethyl]-4-(3,4,5-trifluorophenyl)piperazine-1-carboxamide] | 10 to 100
C[C@@H]1CN(c2nc(C#N)cc(C#N)n2)CCN1C(=O)NCCC1CCN(Cc2ccccc2)CC1 [4-75, (2R)-N-[2-(1-benzylpiperidin-4-yl)ethyl]-4-(4,6-dicyanopyrimidin-2-yl)-2-methylpiperazine-1-carboxamide] | 10 to 100
C[C@@H]1CN(c2ncc(C#N)cc2F)C[C@H](C)N1C(=O)NCCC1CCN(Cc2ccccc2)CC1 [4-78, (2S,6R)-N-[2-(1-benzylpiperidin-4-yl)ethyl]-4-(5-cyano-3-fluoropyridin-2-yl)-2,6-dimethylpiperazine-1-carboxamide] | 10 to 100
C[C@@H]1CN(c2ncc(C(=O)O)cn2)CCN1C(=O)NCCC1CCN(Cc2ccccc2)CC1 [5-2, 2-[(3R)-4-{[2-(1-benzylpiperidin-4-yl)ethyl]carbamoyl}-3-methylpiperazin-1-yl]pyrimidine-5-carboxylic acid] | 100 to 1000
C[C@@H]1CN(c2ncc(Cl)c(Cl)n2)CCN1C(=O)NCCC1CCN(Cc2ccccc2)CC1 [5-3, (2R)-N-[2-(1-benzylpiperidin-4-yl)ethyl]-4-(4,5-dichloropyrimidin-2-yl)-2-methylpiperazine-1-carboxamide] | 100 to 1000
C[C@@H]1CN(c2ncc(C#N)c(NCC(F)(F)F)n2)C[C@H](C)N1C(=O)NCCC1CCN(Cc2ccccc2)CC1 [5-4, (2S,6R)-N-[2-(1-benzylpiperidin-4-yl)ethyl]-4-{5-cyano-4-[(2,2,2-trifluoroethyl)amino]pyrimidin-2-yl}-2,6-dimethylpiperazine-1-carboxamide] | 10 to 100
C[C@@H]1CN(c2nc(F)c(F)c(F)n2)CCN1C(=O)NCCC1CCN(Cc2ccccc2)CC1 [5-6, (2R)-N-[2-(1-benzylpiperidin-4-yl)ethyl]-2-methyl-4-(trifluoropyrimidin-2-yl)piperazine-1-carboxamide] | 10 to 100
C[C@@H]1CN(c2ncc(C#N)c(NCC(F)(F)F)n2)CCN1C(=O)NCCC1CCN(Cc2ccccc2)CC1 [5-7, (2R)-N-[2-(1-benzylpiperidin-4-yl)ethyl]-4-{5-cyano-4-[(2,2,2-trifluoroethyl)amino]pyrimidin-2-yl}-2-methylpiperazine-1-carboxamide] | 10 to 100
C[C@@H]1CN(c2ncc(F)c(Cl)n2)CCN1C(=O)NCCC1CCN(Cc2ccccc2)CC1 [5-9, (2R)-N-[2-(1-benzylpiperidin-4-yl)ethyl]-4-(4-chloro-5-fluoropyrimidin-2-yl)-2-methylpiperazine-1-carboxamide] | 100 to 1000
C[C@@H]1CN(c2ncc(Br)c(Cl)n2)CCN1C(=O)NCCC1CCN(Cc2ccccc2)CC1 [5-10, (2R)-N-[2-(1-benzylpiperidin-4-yl)ethyl]-4-(5-bromo-4-chloropyrimidin-2-yl)-2-methylpiperazine-1-carboxamide] | 100 to 1000
COC(=O)c1cc(Cl)nc(N2CCN(C(=O)NCCC3CCN(Cc4ccccc4)CC3)[C@H](C)C2)n1 [5-11, methyl 2-[(3R)-4-{[2-(1-benzylpiperidin-4-yl)ethyl]carbamoyl}-3-methylpiperazin-1-yl]-6-chloropyrimidine-4-carboxylate] | 100 to 1000
COC(=O)c1cc(C)nc(N2CCN(C(=O)NCCC3CCN(Cc4ccccc4)CC3)[C@H](C)C2)n1 [5-12, methyl 2-[(3R)-4-{[2-(1-benzylpiperidin-4-yl)ethyl]carbamoyl}-3-methylpiperazin-1-yl]-6-methylpyrimidine-4-carboxylate] | 100 to 1000
C[C@@H]1CN(c2ncc(C#N)cn2)CCN1C(=O)NCCC1CCN(Cc2ccccc2)CC1 [5-13, (2R)-N-[2-(1-benzylpiperidin-4-yl)ethyl]-4-(5-cyanopyrimidin-2-yl)-2-methylpiperazine-1-carboxamide] | 10 to 100

SMILES | Ki [nM]
C[C@@H]1CN(c2ncc(C#N)c(N(C)C)n2)CCN1C(=O)NCCC1CCN(Cc2ccccc2)CC1 [5-15, (2R)-N-[2-(1-benzylpiperidin-4-yl)ethyl]-4-[5-cyano-4-(dimethylamino)pyrimidin-2-yl]-2-methylpiperazine-1-carboxamide] | 10 to 100
COc1nc(N2CCN(C(=O)NCCC3CCN(Cc4ccccc4)CC3)[C@H](C)C2)ncc1C#N [5-16, (2R)-N-[2-(1-benzylpiperidin-4-yl)ethyl]-4-(5-cyano-4-methoxypyrimidin-2-yl)-2-methylpiperazine-1-carboxamide] | 10 to 100
C[C@@H]1CN(c2ncc(F)cn2)C[C@H](C)N1C(=O)NCCC1CCN(Cc2ccccc2)CC1 [5-19, (2S,6R)-N-[2-(1-benzylpiperidin-4-yl)ethyl]-4-(5-fluoropyrimidin-2-yl)-2,6-dimethylpiperazine-1-carboxamide] | 10 to 100
CNc1nc(N2C[C@@H](C)N(C(=O)NCCC3CCN(Cc4ccccc4)CC3)[C@@H](C)C2)ncc1C#N [5-21, (2R,6S)-N-[2-(1-benzylpiperidin-4-yl)ethyl]-4-[5-cyano-4-(methylamino)pyrimidin-2-yl]-2,6-dimethylpiperazine-1-carboxamide] | 100 to 1000
N#Cc1cnc(N2CCN(C(=O)NCCC3CCN(Cc4ccccc4)CC3)C[C@H]2CO)nc1 [5-25, (3S)-N-[2-(1-benzylpiperidin-4-yl)ethyl]-4-(5-cyanopyrimidin-2-yl)-3-(hydroxymethyl)piperazine-1-carboxamide] | 100 to 1000
N#Cc1cnc(N2CCN(C(=O)NCCC3CCN(Cc4ccccc4)CC3)[C@@H](CO)C2)nc1 [5-26, (2R)-N-[2-(1-benzylpiperidin-4-yl)ethyl]-4-(5-cyanopyrimidin-2-yl)-2-(hydroxymethyl)piperazine-1-carboxamide] | 100 to 1000
Nc1nc(N2CCN(C(=O)NCCC3CCN(Cc4ccccc4)CC3)CC2)ncc1Cl [5-33, 4-(4-amino-5-chloropyrimidin-2-yl)-N-[2-(1-benzylpiperidin-4-yl)ethyl]piperazine-1-carboxamide] | 10 to 100
Nc1nc(N2CCN(C(=O)NCCC3CCN(Cc4ccccc4)CC3)CC2)ncc1F [5-34, 4-(4-amino-5-fluoropyrimidin-2-yl)-N-[2-(1-benzylpiperidin-4-yl)ethyl]piperazine-1-carboxamide] | 100 to 1000
C[C@@H]1CN(c2cc(F)c(F)c(F)c2)CCN1C(=O)NCCC1CCN(Cc2ccc(C#N)cc2)CC1 [6-2, (2R)-N-(2-{1-[(4-cyanophenyl)methyl]piperidin-4-yl}ethyl)-2-methyl-4-(3,4,5-trifluorophenyl)piperazine-1-carboxamide] | 100 to 1000
C[C@@H]1CN(c2cc(F)c(F)c(F)c2)CCN1C(=O)NCCC1CCN(Cc2ccccc2F)CC1 [6-5, (2R)-N-(2-{1-[(2-fluorophenyl)methyl]piperidin-4-yl}ethyl)-2-methyl-4-(3,4,5-trifluorophenyl)piperazine-1-carboxamide] | 10 to 100
C[C@@H]1CN(c2cc(F)c(F)c(F)c2)CCN1C(=O)NCCC1CCN(CC2CCCCC2)CC1 [6-6, (2R)-N-{2-[1-(cyclohexylmethyl)piperidin-4-yl]ethyl}-2-methyl-4-(3,4,5-trifluorophenyl)piperazine-1-carboxamide] | 10 to 100
C[C@@H]1CN(c2cc(F)c(F)c(F)c2)CCN1C(=O)NCCC1CCN(Cc2ccccn2)CC1 [6-7, (2R)-2-methyl-N-{2-[1-(pyridin-2-ylmethyl)piperidin-4-yl]ethyl}-4-(3,4,5-trifluorophenyl)piperazine-1-carboxamide] | 10 to 100
C[C@@H]1CN(c2cc(F)c(F)c(F)c2)CCN1C(=O)NCCC1CCN(Cc2csnn2)CC1 [6-8, (2R)-2-methyl-N-{2-[1-(1,2,3-thiadiazol-4-ylmethyl)piperidin-4-yl]ethyl}-4-(3,4,5-trifluorophenyl)piperazine-1-carboxamide] | 10 to 100
C[C@@H]1CN(c2cc(F)c(F)c(F)c2)CCN1C(=O)NCCC1CCN(Cc2ccc3c(c2)OCCO3)CC1 [6-9, (2R)-N-{2-[1-(2,3-dihydro-1,4-benzodioxin-6-ylmethyl)piperidin-4-yl]ethyl}-2-methyl-4-(3,4,5-trifluorophenyl)piperazine-1-carboxamide] | 10 to 100
C[C@@H]1CN(c2cc(F)c(F)c(F)c2)CCN1C(=O)NCCC1CCN(Cc2cccc(F)c2)CC1 [6-10, (2R)-N-(2-{1-[(3-fluorophenyl)methyl]piperidin-4-yl}ethyl)-2-methyl-4-(3,4,5-trifluorophenyl)piperazine-1-carboxamide] | 10 to 100
N#Cc1ccc(N2CCC(C(=O)NCCC3CCN(Cc4ccc5[nH]ccc5c4)CC3)CC2)nc1 [6-11, 1-(5-cyanopyridin-2-yl)-N-{2-[1-(1H-indol-5-ylmethyl)piperidin-4-yl]ethyl}piperidine-4-carboxamide] | 10 to 100
